From US9149475B2, “Protein kinase C inhibitors and uses thereof” (Rigel Pharmaceuticals, Inc., priority 2009, dated 2015) come the findings set out here.

In this assay the test system is Human primary T cells. The assay is described as follows: IL-2 ELISA, human primary T cell, anti-CD3+CD28+ (whole cell assay). Type of assay: cell-based. As to conditions: Homo sapiens, T-cell, 24 h, human primary T cells stimulated with anti-CD3 + anti-CD28, 24 hours. The method in brief:
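IL-2 secreted over 24 h at 37° C was quantified by ELISA after plate-bound αCD3 (1 μg/ml) and αCD28 (5 μg/ml) stimulation, or PMA (0.5 ng/ml) with ionomycin (0.1 μM) as counter-screen. Cells were IL-2-starved primary human T cells, expanded from volunteer PBMC and exposed to compound for 1 hr beforehand.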
For `CC(=O)N1CCC(Oc2ccc(Nc3ncc(F)c(NC4CC(C)(C)N(C)C(C)(C)C4)n3)cc2F)CC1` [III-12, 1-(4-(2-fluoro-4-(5-fluoro-4-(1,2,2,6,6-pentamethylpiperidin-4-ylamino)pyrimidin-2-ylamino)phenoxy)piperidin-1-yl)ethanone], the half-inhibitory concentration (IC50) (usually the concentration that gives 50% inhibition) was above 1000 nM.
Regarding `CC(=O)N1CCC(Oc2ccc(Nc3ncc(F)c(NC4CC(C)(C)NC(C)(C)C4)n3)cc2F)CC1` [III-13, 1-(4-(2-fluoro-4-(5-fluoro-4-(2,2,6,6-tetramethylpiperidin-4-ylamino)pyrimidin-2-ylamino)phenoxy)piperidin-1-yl)ethanone], the half-inhibitory concentration (IC50) was above 1000 nM.
On to `CN1C(C)(C)CC(Nc2nc(Nc3ccc(OC4CCN(S(C)(=O)=O)CC4)c(F)c3)ncc2F)CC1(C)C` [III-14, 5-fluoro-N2-(3-fluoro-4-(1-(methylsulfonyl)piperidin-4-yloxy)phenyl)-N4-(1,2,2,6,6-pentamethylpiperidin-4-yl)pyrimidine-2,4-diamine], for which the IC50 is above 1000 nM.
Next, `CC1(C)CC(Nc2nc(Nc3ccc(OC4CCN(S(C)(=O)=O)CC4)c(F)c3)ncc2F)CC(C)(C)N1` [III-15, 5-fluoro-N2-(3-fluoro-4-(1-(methylsulfonyl)piperidin-4-yloxy)phenyl)-N4-(2,2,6,6-tetramethylpiperidin-4-yl)pyrimidine-2,4-diamine]: above 1000 nM; `CCNC(=O)N1CCC(Oc2ccc(Nc3ncc(F)c(NC4CC(C)(C)N(C)C(C)(C)C4)n3)cc2F)CC1` [III-16, N-ethyl-4-(2-fluoro-4-(5-fluoro-4-(1,2,2,6,6-pentamethylpiperidin-4-ylamino)pyrimidin-2-ylamino)phenoxy)piperidine-1-carboxamide]: above 1000 nM.
As for `CCNC(=O)N1CCC(Oc2ccc(Nc3ncc(F)c(NC4CC(C)(C)NC(C)(C)C4)n3)cc2F)CC1` [III-17, N-ethyl-4-(2-fluoro-4-(5-fluoro-4-(2,2,6,6-tetramethylpiperidin-4-ylamino)pyrimidin-2-ylamino)phenoxy)piperidine-1-carboxamide], the IC50 was above 1000 nM.
On to `CC(C)N1CCC(Oc2ccc(Nc3ncc(F)c(NC4CC(C)(C)N(C)C(C)(C)C4)n3)cc2F)CC1` [III-18, 5-fluoro-N2-(3-fluoro-4-(1-isopropylpiperidin-4-yloxy)phenyl)-N4-(1,2,2,6,6-pentamethylpiperidin-4-yl)pyrimidine-2,4-diamine], for which the IC50 was below 250 nM.
As for `CC(C)N1CCC(Oc2ccc(Nc3ncc(F)c(NC4CC(C)(C)NC(C)(C)C4)n3)cc2F)CC1` [III-19, 5-fluoro-N2-(3-fluoro-4-(1-isopropylpiperidin-4-yloxy)phenyl)-N4-(2,2,6,6-tetramethylpiperidin-4-yl)pyrimidine-2,4-diamine], the IC50 was in the range of 250 to 500 nM.
Regarding `CN1C(C)(C)CC(Nc2nc(Nc3ccc(OC4CCN(S(C)(=O)=O)CC4)c(OC(F)F)c3)ncc2F)CC1(C)C` [III-20, N2-(3-(difluoromethoxy)-4-(1-(methylsulfonyl)piperidin-4-yloxy)phenyl)-5-fluoro-N4-(1,2,2,6,6-pentamethylpiperidin-4-yl)pyrimidine-2,4-diamine], the IC50 was 250 to 500 nM.
`CC1(C)CC(Nc2nc(Nc3ccc(OC4CCN(S(C)(=O)=O)CC4)c(OC(F)F)c3)ncc2F)CC(C)(C)N1` [III-21, N2-(3-(difluoromethoxy)-4-(1-(methylsulfonyl)piperidin-4-yloxy)phenyl)-5-fluoro-N4-(2,2,6,6-tetramethylpiperidin-4-yl)pyrimidine-2,4-diamine]: the concentration for half-maximal inhibition (IC50) fell in the range of 500 to 1000 nM.
As to `CN1C(C)(C)CC(Nc2nc(Nc3ccc(OC4CCOCC4)c(OC(F)F)c3)ncc2F)CC1(C)C` [III-22, N2-(3-(difluoromethoxy)-4-(tetrahydro-2H-pyran-4-yloxy)phenyl)-5-fluoro-N4-(1,2,2,6,6-pentamethylpiperidin-4-yl)pyrimidine-2,4-diamine], the half-inhibitory concentration (IC50) was below 250 nM.
For the compound `CC1(C)CC(Nc2nc(Nc3ccc(OC4CCOCC4)c(OC(F)F)c3)ncc2F)CC(C)(C)N1` [III-23, N2-(3-(difluoromethoxy)-4-(tetrahydro-2H-pyran-4-yloxy)phenyl)-5-fluoro-N4-(2,2,6,6-tetramethylpiperidin-4-yl)pyrimidine-2,4-diamine], the IC50 was in the range of 250 to 500 nM.
Next, `CN1C(C)(C)CC(Nc2nc(Nc3ccc(OC4CCOCC4)c(F)c3)ncc2F)CC1(C)C` [III-24, 5-fluoro-N2-(3-fluoro-4-(tetrahydro-2H-pyran-4-yloxy)phenyl)-N4-(1,2,2,6,6-pentamethylpiperidin-4-yl)pyrimidine-2,4-diamine]: 500 to 1000 nM.
Next, `CN1C(C)(C)CC(Nc2nc(Nc3cc(F)c(OC4CCOCC4)c(F)c3)ncc2F)CC1(C)C` [III-25, N2-(3,5-difluoro-4-(tetrahydro-2H-pyran-4-yloxy)phenyl)-5-fluoro-N4-(1,2,2,6,6-pentamethylpiperidin-4-yl)pyrimidine-2,4-diamine]: 500 to 1000 nM; `CC1(C)CC(Nc2nc(Nc3cc(F)c(OC4CCOCC4)c(F)c3)ncc2F)CC(C)(C)N1` [III-26, N2-(3,5-difluoro-4-(tetrahydro-2H-pyran-4-yloxy)phenyl)-5-fluoro-N4-(2,2,6,6-tetramethylpiperidin-4-yl)pyrimidine-2,4-diamine]: 500 to 1000 nM.
The same measure for `CN1C(C)(C)CC(Nc2nc(Nc3ccc(OC4CCNCC4)c(OC(F)F)c3)ncc2F)CC1(C)C` [III-27, N2-(3-(difluoromethoxy)-4-(piperidin-4-yloxy)phenyl)-5-fluoro-N4-(1,2,2,6,6-pentamethylpiperidin-4-yl)pyrimidine-2,4-diamine]: 250 to 500 nM; for `CC1(C)CC(Nc2nc(Nc3ccc(OC4CCNCC4)c(OC(F)F)c3)ncc2F)CC(C)(C)N1` [III-28, N2-(3-(difluoromethoxy)-4-(piperidin-4-yloxy)phenyl)-5-fluoro-N4-(2,2,6,6-tetramethylpiperidin-4-yl)pyrimidine-2,4-diamine]: above 1000 nM; for `CN1C(C)(C)CC(Nc2nc(Nc3ccc(OC4CCS(=O)(=O)CC4)c(F)c3)ncc2F)CC1(C)C` [III-29, N2-[4-(1,1-Dioxo-hexahydro-1λ6-thiopyran-4-yloxy)-3-fluoro-phenyl]-5-fluoro-N4-(1,2,2,6,6-pentamethyl-piperidin-4-yl)-pyrimidine-2,4-diamine]: above 1000 nM.
`CC1(C)CC(Nc2nc(Nc3ccc(OC4CCS(=O)(=O)CC4)c(OC(F)F)c3)ncc2F)CC(C)(C)N1` [III-32, N2-[3-Difluoromethoxy-4-(1,1-dioxo-hexahydro-1λ6-thiopyran-4-yloxy)-phenyl]-5-fluoro-N4-(2,2,6,6-tetramethyl-piperidin-4-yl)-pyrimidine-2,4-diamine]: the IC50 was above 1000 nM.
The same measure for `CN1C(C)(C)CC(Nc2nc(Nc3ccc(OC4CCN(CC(N)=O)CC4)c(F)c3)ncc2F)CC1(C)C` [III-33, 2-(4-(2-Fluoro-4-(5-fluoro-4-(1,2,2,6,6-pentamethylpiperidin-4-ylamino)pyrimidin-2-ylamino)phenoxy)piperidin-1-yl)acetamide]: above 1000 nM; for `CC1(C)CC(Nc2nc(Nc3ccc(OC4CCN(CC(N)=O)CC4)c(F)c3)ncc2F)CC(C)(C)N1` [III-34, 2-(4-(2-Fluoro-4-(5-fluoro-4-(2,2,6,6-tetramethylpiperidin-4-ylamino)pyrimidin-2-ylamino)phenoxy)piperidin-1-yl)acetamide]: above 1000 nM.
The same measure for `CN1C(C)(C)CC(Nc2nc(Nc3ccc(OC4CCN(CC(N)=O)CC4)c(OC(F)F)c3)ncc2F)CC1(C)C` [III-35, 2-(4-(2-(Difluoromethoxy)-4-(5-fluoro-4-(1,2,2,6,6-pentamethylpiperidin-4-ylamino)pyrimidin-2-ylamino)phenoxy)piperidin-1-yl)acetamide]: 250 to 500 nM.
Regarding `CC1(C)CC(Nc2nc(Nc3ccc(OC4CCN(CC(N)=O)CC4)c(OC(F)F)c3)ncc2F)CC(C)(C)N1` [III-36, 2-(4-(2-(Difluoromethoxy)-4-(5-fluoro-4-(2,2,6,6-tetramethylpiperidin-4-ylamino)pyrimidin-2-ylamino)phenoxy)piperidin-1-yl)acetamide], the half-maximal inhibitory concentration (IC50) is above 1000 nM.
Turning to `CN1C(C)(C)CC(Nc2nc(Nc3ccc(OC4CCN(CCO)CC4)c(OC(F)F)c3)ncc2F)CC1(C)C` [III-37, 2-(4-(2-(Difluoromethoxy)-4-(5-fluoro-4-(1,2,2,6,6-pentamethylpiperidin-4-ylamino)pyrimidin-2-ylamino)phenoxy)piperidin-1-yl)ethanol], the IC50 was below 250 nM.
With `CC1(C)CC(Nc2nc(Nc3ccc(OC4CCN(CCO)CC4)c(OC(F)F)c3)ncc2F)CC(C)(C)N1` [III-38, 2-(4-(2-(Difluoromethoxy)-4-(5-fluoro-4-(2,2,6,6-tetramethylpiperidin-4-ylamino)pyrimidin-2-ylamino)phenoxy)piperidin-1-yl)ethanol], the IC50 lay within 500 to 1000 nM.
Take `CC(C)N1CC(Oc2ccc(Nc3ncc(F)c(NC4CC(C)(C)NC(C)(C)C4)n3)cc2OC(F)F)C1` [III-39, N2-(3-(Difluoromethoxy)-4-(1-isopropylazetidin-3-yloxy)phenyl)-5-fluoro-N4-(2,2,6,6-tetramethylpiperidin-4-yl)pyrimidine-2,4-diamine]: the half-maximal inhibitory concentration (IC50) fell in the range of 500 to 1000 nM.
Consider `CC(C)N1CCCC(Oc2ccc(Nc3ncc(F)c(NC4CC(C)(C)NC(C)(C)C4)n3)cc2OC(F)F)CC1` (stereo not shown) [III-40, N2-(3-(difluoromethoxy)-4-(1-isopropylazepan-4-yloxy)phenyl)-5-fluoro-N4-(2,2,6,6-tetramethylpiperidin-4-yl)pyrimidine-2,4-diamine], for which the half-inhibitory concentration (IC50) lay in the range of 250 to 500 nM.
Next, `CC(C)N1CCCC(Oc2ccc(Nc3ncc(F)c(NC4CC(C)(C)N(C)C(C)(C)C4)n3)cc2OC(F)F)CC1` (stereo not shown) [III-41, N2-(3-(difluoromethoxy)-4-(1-isopropylazepan-4-yloxy)phenyl)-5-fluoro-N4-(1,2,2,6,6-pentamethylpiperidin-4-yl)pyrimidine-2,4-diamine]: below 250 nM.
